According to PubChem BioAssay (NCI):
Several values for one entry are separate records, joined by “and”; a condition that tells them apart may be missing. Identical values can stand only once.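 Tested at 5 concentrations; 48 h exposure; 96-well plates; endpoints linearly interpolated, else capped at highest concentration. Here, GI50 denotes the concentration required for 50% inhibition of growth. TGI denotes the concentration required for complete inhibition of growth.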

Key:
Assay in all cases: growth of human tumour cells (NCI), 48 h
UACC-257 melanoma = test system: UACC-257 melanoma
OVCAR-5 ovarian = test system: OVCAR-5 ovarian
CAKI-1 renal = test system: CAKI-1 renal
SF-268 CNS = test system: SF-268 CNS
SW-620 colon = test system: SW-620 colon
PC-3 prostate = test system: PC-3 prostate
BT-549 breast = test system: BT-549 breast
SR leukemia = test system: SR leukemia
OVCAR-3 ovarian = test system: OVCAR-3 ovarian
SF-539 CNS = test system: SF-539 CNS

Row | Compound | TGI (UACC-257 melanoma) | TGI (OVCAR-5 ovarian) | TGI (CAKI-1 renal) | TGI (SF-268 CNS) | TGI (SW-620 colon) | TGI (PC-3 prostate) | TGI (BT-549 breast) | TGI (SR leukemia) | TGI (OVCAR-3 ovarian) | TGI (SF-539 CNS) | GI50 (UACC-257 melanoma) [µM] | GI50 (OVCAR-5 ovarian) | GI50 (CAKI-1 renal) | GI50 (SF-268 CNS) | GI50 (SW-620 colon) | GI50 (PC-3 prostate) | GI50 (BT-549 breast) | GI50 (SR leukemia) | GI50 (OVCAR-3 ovarian) | GI50 (SF-539 CNS)
1 | O=[N+]([O-])c1ccc(/C=C(/c2ccc([N+](=O)[O-])o2)S(=O)(=O)c2ccccc2)o1 | 3.66 µM | 33.9 µM | 33 µM | 32.4 µM | 5.55 µM | 30.1 µM | 36.2 µM | 2.6 µM | 29 µM | 37.7 µM |  |  |  |  |  |  |  |  |  | 
2 | COc1cc2cc(Oc3ccc(NC(=O)Nc4ccc(Cl)c(C(F)(F)F)c4)cc3)c(C)nc2cc1OC | 2.36 µM | 6.22 µM | 2.54 µM | 6.34 µM | 4.57 µM | 2.96 µM | 4.59 µM | 2.65 µM | 4.45 µM | 8.39 µM | 0.71 | 1.93 µM | 0.782 µM | 1.55 µM | 1.25 µM | 0.781 µM | 0.981 µM | 0.831 µM | 1.16 µM | 1.96 µM
3 | CN1CCN(CCNc2ccc(CO)c3sc4ccccc4c(=O)c23)CC1 | 9.84 µM | 21.2 µM | 19.8 µM | 20.7 µM | 14.1 µM | 14.5 µM | 16.1 µM | 19 µM | 18.3 µM | 10.7 µM |  |  |  |  |  | 3.5 µM | 4.83 µM |  |  | 
4 | COc1ccc2c(c1)cn1c3ccc(O)cc3[nH]c(=O)c21 | 18.5 µM | 21.5 µM | 16.3 µM | 19.1 µM | 2.55 µM | 16.4 µM | 19.2 µM | 2.7 µM | 1.74 µM | 1.16 µM | 0.836 | 2.79 µM | 0.302 µM | 0.136 µM | 0.043 µM | 0.244 µM | 2.73 µM | 0.0543 µM | 0.0968 µM | 0.175 µM
5 | COc1cc(NCc2ccccc2O)c2ncccc2c1 | 70.7 µM | > 100 µM | 34.1 µM | > 100 µM | > 100 µM | 90.6 µM | 55 µM | 58.3 µM | 84.5 µM | > 100 µM | 19.5 | 80.3 µM | 6.02 µM | 22.5 µM | 32.2 µM | 10.6 µM | 16.6 µM | 5.91 µM | 20.6 µM | 21 µM
6 | O=C(Nc1ccccc1O)c1ccc(CNC(=O)c2sccc2Nc2ccnc(C(F)(F)F)c2)cc1 | 38.1 µM | 24.6 µM | 23.9 µM | 27.7 µM | 20.4 µM | 36.8 µM | 35 µM | 61.4 µM | 21.6 µM | 31.8 µM | 4.61 | 5.9 µM | 6.63 µM | 7.04 µM | 5.36 µM | 4.56 µM | 5.54 µM | 4.19 µM | 7.48 µM | 3.56 µM
7 | COc1ccc(CC(NC(=O)[C@H](C)NC(=O)CN2CCOCC2)C(=O)N[C@@H](Cc2ccccc2)C(=O)[C@@]2(C)CO2)cc1 (stereo partly specified) |  | 1.19 µM | > 57.8 µM | 0.708 µM | 0.734 µM | 0.631 µM | 0.391 µM |  | 0.421 µM | 0.591 µM | 0.296 | 0.272 µM | 4.29 µM | 0.245 µM | 0.216 µM | 0.229 µM | 0.154 µM | 0.064 µM | 0.198 µM | 0.221 µM
8 | O=C(Nc1cccc(O)c1)c1cccc(NC2=C(Cl)C(=O)N(Cc3ccccc3)C2=O)c1 | 31.8 µM | 28 µM | 0.806 µM | 54.2 µM | 29.9 µM | 25 µM | 2.05 µM | 3.36 µM | 23 µM | 15.6 µM | 14 | 12.1 µM | 0.318 µM | 21.8 µM | 6.53 µM | 8.29 µM | 0.396 µM | 0.315 µM | 8.16 µM | 3.57 µM
9 | Cc1nc2cc(Nc3nc(Nc4ccc(F)cc4)nc(N4CCN(C)CC4)n3)ccc2n1Cc1ccccc1 | 3.3 µM | 4.7 µM | 5.4 µM | 4.08 µM | 3.95 µM | 5.4 µM | 3.44 µM | 0.806 µM | 3.51 µM | 3.13 µM | 1.8 | 2 µM | 2.19 µM | 1.86 µM | 1.79 µM | 2.04 µM | 1.73 µM | 0.266 µM | 1.84 µM | 1.73 µM
10 | O=S(=O)(O)/C(=C\c1ccccc1)c1ccccc1 (tested in a mixture with another compound) | > 100 µM | > 100 µM | > 100 µM | > 100 µM | > 100 µM | > 100 µM | > 100 µM | > 100 µM | > 100 µM | > 100 µM |  |  |  |  |  |  |  |  |  | 
11 | Cc1cccc2c1O/C(=C\c1ccc([N+](=O)[O-])o1)C2=O | 2.91 µM | 3.74 µM | 1.8 µM | 3.94 µM | 0.864 µM | 4.11 µM | 2.63 µM | 0.727 µM | 1.89 µM | 3.22 µM | 1.42 | 1.79 µM | 0.494 µM | 1.56 µM | 0.223 µM | 1.34 µM | 1.28 µM | 0.12 µM | 0.689 µM | 1.53 µM
12 | O=C(O)c1cscc1Cc1cccs1 | > 100 µM | > 100 µM | > 100 µM | > 100 µM | > 100 µM | > 100 µM | > 100 µM | > 100 µM | > 100 µM | > 100 µM |  |  |  |  |  |  |  |  |  | 
13 | CC1SC(c2c(Cl)cccc2Cl)N(NC(=O)C(O)c2ccccc2)C1=O (stereo unspecified) | > 100 µM | > 100 µM | > 100 µM | > 100 µM | > 100 µM | > 100 µM | > 100 µM | > 100 µM | > 100 µM | > 100 µM | 86.3 | > 100 µM | 62.1 µM | > 100 µM | > 100 µM | 39.7 µM | > 100 µM | 34.9 µM | 54.1 µM | > 100 µM
14 | CCN(CC)CCOc1ccc2c(c1)C(=O)c1cc(OCCN(CC)CC)ccc1-2 | 24.9 µM | 69.7 µM | > 100 µM | 33.1 µM | 20.6 µM | 26.2 µM | 46.5 µM | 6.59 µM | 52.6 µM | 5.72 µM | 11.5 | 35.6 µM | 30.2 µM | 8.5 µM | 4.04 µM | 5.64 µM | 20.4 µM | 2.69 µM | 18.3 µM | 2.54 µM
15 | CCc1c(O)c2c(c(O)c1C(C)=O)C(=O)c1c(cc(O)c(C(=O)O)c1C(=O)O)C2=O | > 100 µM | > 100 µM | > 100 µM | > 100 µM | > 100 µM | > 100 µM | > 100 µM | > 100 µM | > 100 µM | > 100 µM |  |  |  |  |  |  |  |  |  | 
16 | C#Cc1cccc(Oc2ccc(NC(=O)CCl)cc2)c1 | > 82.5 µM | > 82.5 µM | > 82.5 µM | > 82.5 µM | > 82.5 µM | > 82.5 µM | > 82.5 µM | > 82.5 µM | > 82.5 µM | > 82.5 µM | > 82.5 | > 82.5 µM | > 82.5 µM | > 82.5 µM | 24.8 µM | > 82.5 µM | 37.2 µM | 11.5 µM | > 82.5 µM | > 82.5 µM
17 | Cc1cc(C)cc(Nc2ccc([N+](=O)[O-])c(NCCN3CCOCC3)n2)c1 | > 100 µM | > 100 µM | > 100 µM | 85.2 µM | > 100 µM | > 100 µM | > 100 µM | > 100 µM | 0.00192 µM | 0.00587 µM and 0.0564 µM | > 100 | 0.0576 µM and 0.0361 µM | 0.00163 µM |  | 0.00176 µM and 0.0147 µM | 0.00177 µM and 0.0106 µM |  |  | 0.000367 µM | 0.0016 µM
18 | O=C(CNc1ncco1)Nc1ccc(S(=O)(=O)c2ccc(NC(=O)CNc3ncco3)cc2)cc1 | 4.86 µM | 4.13 µM | 3.28 µM | 4.54 µM | 4.13 µM | 8.32 µM | 6.26 µM | 5.35 µM | 3.71 µM | 3.9 µM | 1.85 | 2.03 µM | 1.56 µM | 1.53 µM | 1.75 µM | 2.49 µM | 2.09 µM | 2.36 µM | 1.63 µM | 1.7 µM
19 | O=C1C(=O)c2ccccc2C(O)=C1CC=C(Cl)Cl | 58.2 µM and 65.8 µM and 65.3 µM | 195 µM and > 100 µM | 65.6 µM and 136 µM and > 100 µM | 202 µM and > 100 µM | > 80.5 µM and 231 µM and > 100 µM | > 48.8 µM and 134 µM and 72.9 µM | 94.6 µM and 139 µM and > 100 µM | > 91.1 µM and 156 µM and > 100 µM | 38.9 µM and 70.8 µM and 70.3 µM | 54.3 µM and 107 µM and > 100 µM |  | 17.2 µM and 28.3 µM | 7.47 µM and 7.14 µM | 9.02 µM and 7.72 µM | 6.98 µM and 4.68 µM | 4.7 µM and 2.85 µM | 16.3 µM and 27.1 µM | 0.924 µM and 4.89 µM | 9.76 µM and 15 µM | 2.45 µM and 3.72 µM
20 | C1=C(c2ccccc2)C(c2ccc(OCCN3CCCCC3)cc2)Oc2ccccc21 (stereo unspecified) | 4.15 µM | 3.29 µM | 2.75 µM | 9.93 µM | 3.62 µM | 3.25 µM | 3.07 µM | 3.94 µM | 4.14 µM | 3.08 µM | 2.02 | 1.61 µM | 1.34 µM | 2.66 µM | 1.83 µM | 1.79 µM | 1.61 µM | 1.93 µM | 1.88 µM | 1.62 µM
